# Measured values: patent US20220000860A1, “COMPOUNDS, COMPOSITIONS, AND METHODS FOR TREATING HUMAN IMMUNODEFICIENCY VIRUS” (OYAGEN, INC., priority 2017, published 2022)
# Key:
# [1] = target: T1, HIV-1 protease (Human immunodeficiency virus type 1 group M subtype B, UniProt P12497); test: protease assay (Abz-HIV Protease Substrate FRET); assay type: biochemical
# T1 construct: A 50 μM stock HIV-1 protease (received from Sook-kyung Lee (UNC)); gift from Sook-kyung Lee (UNC)
# Experimental: (§1) For the assays listed in Table I, the integrase assay was conducted using the XpressBio HIV-1 Integrase Assay Kit according to the manufacture's protocol. The protease assay was conducted with the Anthranilyl (Abz)-HIV Protease Substrate (Bachem H-2992), a hexapeptide FRET substrate derived from the p24/p15 cleavage site of the viral gag-pol poly-protein, which allows the screening of potential HIV protease inhibitors. 1 mM Abz-Substrate was diluted with Assay Buffer to a working stock of 20 μM. A 50 μM stock HIV-1 protease (received from Sook-kyung Lee (UNC)) was diluted with Assay Buffer (50 mM HEPES, pH 6.8, 150 mM NaCl, and 1% DMSO) to a working stock of 100 nM. 2 μl 100 nM HIV-1 Protease along with 2 uL 20 μM Abz Substrate was added into each well and incubated at room temperature (avoiding light) for 1 hour before being read on an Envision plate reader (Perkin Elmer) excitation at 280 nm, emission at >435 nm. The reverse transcriptase assay utilized purified recombinant HIV (pNL4-3) heterodimeric (p66/p51) Reverse Transcriptase (RT) that was purchased from a commercially available source. The assay was performed in 96-well filter plate, where RT activity was determined by the incorporation of radiolabeled deoxyribonucleotides into the newly synthesized DNA strand. The RT reaction mixture contained in vitro transcribed viral RNA derived from the HIV-1NL4-3 5′-LTR region (position 454 to 652) and primer that is complementary to the primer binding site (PBS, nucleotide residues nucleotides 636 to 652), radiolabeled deoxyribonucleotide, dNTPs and reverse transcriptase. Briefly, the reaction was carried out in a volume of 50 μl containing 50 mM Tris HCl, pH 7.8, 50 mM KCl, 5 mM MgCl2, 1 mM DTT, 50 μM each of dATP, dCTP, dGTP, 50 nM dTTP, 1 μCi of [^3H] dTTP (70-90 Ci/mM) and 5 nM template/primer. The reaction was initiated by the addition of 10 nM RT. For compound screening, serially diluted test articles were added to the reaction followed by the addition of RT. The reaction mixture was incubated at 37° C. for 1 h, and then quenched by the addition of ice-cold trichloroacetic acid (TCA) to the final concentration of 10%. The plate was incubated at 4° C. for 1 h to precipitate the synthesized DNA, then rinsed 3-times with 10% TCA and 1 time with 70% ethanol. After addition of 25 μl scintillation fluid to completely dried wells, radioactivity is counted by MicroBeta scintillation counter. The reduction of radioactivity represents the potency of compound inhibition.
# [2] = target: T2, pNL4-3 Vif (Vif multimerization) (Human immunodeficiency virus type 1 group M subtype B, UniProt P12504); test: Vif FqRET Multimerization Assay; assay type: cell-based, HIV
# T2 construct: expressed in transfected cells; host or cells: HEK293T
# T2 sequence (P12504 whole entry): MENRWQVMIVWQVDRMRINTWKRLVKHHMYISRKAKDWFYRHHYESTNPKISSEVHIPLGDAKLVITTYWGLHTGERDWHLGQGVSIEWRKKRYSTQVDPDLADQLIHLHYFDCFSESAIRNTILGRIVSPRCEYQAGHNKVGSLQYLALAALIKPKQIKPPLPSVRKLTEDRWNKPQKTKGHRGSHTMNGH
# Description: The quenched fluorescence resonance energy transfer (FqRET) cell-based assay utilized expression of pNL4-3 Vif (accession no. M19921) tagged separately with either a EGFP fluorophore (EGFP-V5-Vif) or a REACh2 quencher (Vif-HA-REACh2) in the pIRES-P vector. The Vif multimerization assay was established through robotic co-transfection of HEK293T (293T) cells with Turbofect (Thermo) and optimized for input plasmid ratio (1:4, fluorophore to quencher) to achieve maximum quench of fluorescent signal. EGFP fluorescence was quantified 24 hours after transfection with a BioTek Synergy4 plate reader (ex=485 nm, em=528 nm) followed by the addition of 0-30 μM compound. The plates were read a second time 24 hours after compound addition. The differential between the first and second read in each well was quantified relative to the DMSO control to determine the change in relative fluorescence units (ΔRFU)
# The interaction of 2 molecules of Vif (i.e. dimerization) enables quenching of Enhanced Green Fluorescent Protein (EGFP) signal by Resonance Energy Accepting Chromophore 2 (REACh2), a dark mutant of yellow fluorescent protein that is capable of accepting the EGFP donor fluorescence and quenching its signal without an acceptor signal.
# [3] = target: T3, recombinant HIV (pNL4-3) heterodimeric (p66/p51) Reverse Transcriptase (Human immunodeficiency virus type 1 group M subtype B, UniProt P12497); test: reverse transcriptase assay; assay type: biochemical
# T3 construct: purified recombinant HIV (pNL4-3) heterodimeric (p66/p51) Reverse Transcriptase (RT); purchased
# Experimental: as §1
# [4] = system: 00KE_KER2008 (Subtype A); test: PBMC Acute Infection, 00KE_KER2008; assay type: cell-based, HIV; conditions: Human immunodeficiency virus 1, PBMC, isolate 00KE-KER2008, subtype A, RT activity readout; for EC50: read-out: EC50; for EC90: read-out: EC90
# Experimental: (§2) PHA-stimulated cells from at least two normal donors were pooled (i.e. mixed together), diluted in fresh medium to a final concentration of 1×10^6 cells/mL, and plated in the interior wells of a 96-well round bottom microplate at 50 μL/well (5×10^4 cells/well). Pooling of mononuclear cells from more than one donor was used to minimize the variability observed between individual donors in quantitative and qualitative differences in HIV infection and overall response to the PHA and IL-2 of primary lymphocyte populations. Each plate contained virus control wells (cells plus virus) and experimental wells (drug plus cells plus virus) of either 00KE_KER2008 (Subtype A), IIIB (Subtype B), or 98US_MSC5016 (Subtype C). Test drug dilutions were prepared at a 2×concentration and 100 μL of each concentration was placed in appropriate wells. Fifty μL of a predetermined dilution of virus stock was placed in each test well (final MOI≅0.1). After this period, cell-free supernatant samples were collected for analysis of reverse transcriptase (RT) activity with an RT assay. […] In the Table below SI50=CC50/EC50 and SI90=CC90/EC90.
# [5] = target: T4, HIV-1 Integrase (Human immunodeficiency virus type 1 group M subtype B, UniProt P12497); test: integrase assay (XpressBio HIV-1 Integrase Assay Kit); assay type: biochemical
# T4 construct: the integrase assay was conducted using the XpressBio HIV-1 Integrase Assay Kit; purchased XpressBio
# Experimental: as §1
# [6] = system: PBMCs; test: PBMC Acute Infection, cytotoxicity (CC50/CC90); assay type: cell-based
# Experimental: as §2
SMILES,IC50 [1] [nM],activity against HIV protease (result in words) [1],EC50 [2] [nM],Vif multimerization (result in words) [2],IC50 [3] [nM],activity against HIV reverse transcriptase (result in words) [3],EC50 [4] [nM],EC90 [4] [nM],IC50 [5] [nM],activity against HIV integrase (result in words) [5],"CC90 ([6]; row of isolate 98US_MSC5016, subtype C) [nM]","CC90 ([6]; row of isolate IIIB, subtype B) [nM]"
"CCc1c2c(nc3ccc(O)cc13)-c1cc3c(c(=O)n1C2)CNC(=O)[C@]3(O)CC [SN38-L, (S)-4,11-Diethyl-4,9-dihydroxy-1,2-dihydroquinolino[2′,3′:3,4]pyrrolo[1,2-b][2,7]naphthyridine-3,14(4H,12H)-dione]",> 100000,inactive,378,block,> 100000,inactive,4,15,> 100000,inactive,,
"CCc1c2c(nc3ccc(N)cc13)-c1cc3c(c(=O)n1C2)CNC(=O)[C@]3(O)CC [Compound O5-SN, (S)-9-Amino-4,11-diethyl-4-hydroxy-1,2-dihydroquinolino[2′,3′:3,4]pyrrolo[1,2-b][2,7]naphthyridine-3,14(4H,12H)-dione]",> 100000,inactive,362,block,> 100000,inactive,6,18,> 100000,inactive,> 100000,> 100000
